Data taken from PubChem BioAssay AID2060908 (Molecular Pharmacology Branch, DTP, NCI, 2025).
“And” between values parts separate entries of the source, which are not always exact repeats. Equal entries are not always repeated.

Test system: 186277-243-T-J2-PDC complex spheroids, viability
Assay: Anticancer human tumor 186277-243-T-J2-PDC patient-derived colon adenocarcinoma cell line growth inhibition [RAS]
Conditions: for viability, T/C: stronger effect = lower value
Source text: RAS pathway inhibitors in Combinations in Complex Spheroids
A high-throughput screen of multi-cell type tumor spheroids was designed to identify active combinations of RAS pathway inhibitors and targeted small molecules. Complex spheroids include a stromal component modeled by human endothelial cells (HUVEC) and fibroblasts modeled by human mesenchymal stem cells (MSCs). The concentration ranges selected for each drug and investigational agent were based upon clinically achievable concentrations if the clinical Cmax of the agent was known.
Compounds. The drugs and investigational agents: abemaciclib (NSC768073), cobimetinib (NSC768068), divarasib (GDC6063, NSC841802), docetaxel (NSC628503), GDC-1971 (RLY-1971, NSC841576), gemcitabine (NSC613327), inavolisib (NSC800729), ipatasertib (NSC767898), KB-0742 (NSC834161), MRTX-1133 (NSC836407), osimertinib (NSC779217), RMC-4630 (NSC839698), RMC-6236 (NSC851965), RMC-6291 (NSC852671), Ro-3306 (NSC812927), sapanisertib (NSC764658), SN-38 (NSC673596), staurosporine (NSC755774), SY5609 (NSC837396), and tovorafenib (DAY101, NSC766906), were obtained from the National Cancer Institute (NCI) Developmental Therapeutics Program Chemical Repository. The FDA-approved anticancer drug set is available from the NCI Developmental Therapeutics Program. […] The stock solutions were prepared in dimethyl sulfoxide (DMSO, Sigma-Aldrich, St. Louis, MO, cat. D2650) at 800-fold the tested concentration and stored at -70 degrees C prior to their use. All drugs and investigational agents were tested over a range starting from a high concentration at or near the clinical Cmax and decreasing in half-log increments. If the clinical Cmax for an agent had not been determined, the highest concentration tested was 10 microM.
Cell Culture. All cells were maintained in an incubator at 37 degrees C and 5% CO2 with 95% humidity. The PDC lines were cultured according to standard operating procedures established by the NCI PDMR. All PDCs were thawed and cultured in Matrigel-coated flasks prepared with a working solution of 1X Ham's F-12 nutrient mix, without supplementation (Invitrogen, Waltham, MA, cat. 11765054), 100 U/mL penicillin-streptomycin (Invitrogen, cat. 15140122), and 2.5% Matrigel (Corning Inc., Corning, NY, cat. 354248) for the first three passages. The 362531-283-R-J2-PDC and 782815-120-R-J1-PDC lines were cultured in 6C/Colon 1B media, which includes advanced DMEM/F-12 (Thermo Fisher Scientific, cat. 12634028), 10 mM HEPES (Thermo Fisher Scientific, cat. 15630080), 1X GlutaMAX supplement (Thermo Fisher Scientific, cat. 35050061), 0.1 mg/mL primocin (InvivoGen, San Diego, CA, cat. ant-pm-2), 10% defined fetal bovine serum, heat inactivated (HyClone Laboratories Inc., Logan, UT, cat. SH30070.03HI), 50% L-WRN conditioned media (ATCC, cat. CRL-3276), 1.25 mM N-Acetyl-L-cysteine (Sigma-Aldrich, cat. A9165), 10 mM nicotinamide (Sigma-Aldrich, cat. N0636), 1X B-27 supplement (Thermo Fisher Scientific, cat. 17504044), 1X N-2 supplement (Thermo Fisher Scientific, cat. 17502048), 50 ng/mL human EGF (Thermo Fisher Scientific, cat. PHG0311), and 10 microM Y-27632 dihydrochloride (Tocris Bioscience, cat. 1254). The K12877-001-R-J1-PDC line was cultured in 6I media, which includes all 6C/Colon 1B media plus 10 ng/mL human FGF-10 (PeproTech, cat. 100-26), 1 ng/mL human FGF-2 (PeproTech, cat. 100-18B), 1 µM prostaglandin E2 (Tocris Bioscience, cat. 2296), […] hydrocortisone (Sigma-Aldrich, cat. H4001), and […] bovine insulin (Sigma-Aldrich, cat. I6634). The K86415-001-R-J1-PDC line was cultured in 6D media, which includes all 6C/Colon 1B media components minus the L-WRN conditioned media. The 485176-168-R4-J1-PDC was cultured in PANC media, which includes all 6C/Colon 1B media plus 100 ng/mL human FGF-10 (PeproTech, cat. 100-26), 500 nM SB-431542 (Selleckchem, cat. S1067), and 10 nM gastrin (Tocris Bioscience, cat. 3006). […]

[1] = curve of first compound, second compound 0.0316 µM
[2] = curve of first compound, second compound 0.1 µM
[3] = curve of first compound, second compound 0.316 µM
[4] = curve of first compound, second compound 1 µM
[5] = curve of first compound, second compound 3.16 µM
[6] = curve of first compound, second compound 10 µM
[7] = second compound 0.0316 µM, first compound 0.0316 µM
[8] = second compound 0.0316 µM, first compound 0.1 µM
[9] = second compound 0.0316 µM, first compound 0.316 µM
[10] = second compound 0.0316 µM, first compound 1 µM
[11] = second compound 0.1 µM, first compound 0.0316 µM
[12] = second compound 0.1 µM, first compound 0.1 µM
[13] = second compound 0.1 µM, first compound 0.316 µM
[14] = second compound 0.1 µM, first compound 1 µM
[15] = second compound 0.316 µM, first compound 0.0316 µM
[16] = second compound 0.316 µM, first compound 0.1 µM
[17] = second compound 0.316 µM, first compound 0.316 µM
[18] = second compound 0.316 µM, first compound 1 µM
[19] = second compound 1 µM, first compound 0.0316 µM
[20] = second compound 1 µM, first compound 0.1 µM
[21] = second compound 1 µM, first compound 0.316 µM
[22] = second compound 1 µM, first compound 1 µM
[23] = second compound 3.16 µM, first compound 0.0316 µM
[24] = second compound 3.16 µM, first compound 0.1 µM
[25] = second compound 3.16 µM, first compound 0.316 µM
[26] = second compound 3.16 µM, first compound 1 µM
[27] = second compound 10 µM, first compound 0.0316 µM
[28] = second compound 10 µM, first compound 0.1 µM
[29] = second compound 10 µM, first compound 0.316 µM
[30] = second compound 10 µM, first compound 1 µM
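Note: spheroids exposed to compounds for 7 days before viability read.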

Work on CC1(O)CCCC1n1c(=O)c(C(F)F)cc2cnc(NC3CCN(S(C)(=O)=O)CC3)nc21 (stereo unspecified) + C#Cc1c(F)ccc2cc(O)cc(-c3ncc4c(N5CC6CCC(C5)N6)nc(OCC56CCCN5CC(F)C6)nc4c3F)c12 yielded an IC50 [1] of 570 nM, an IC50 [2] of 104 nM and an IC50 [3] of less than 31.6 nM. The IC50 [4] was less than 31.6 nM, the IC50 [5] was less than 31.6 nM and the IC50 [6] was less than 31.6 nM. For the same compound, the viability, T/C [7] was 71.2%, the viability, T/C [8] was 69.4% and the viability, T/C [9] was 47.3%. For the same compound, the viability, T/C [10] was 43.7%, the viability, T/C (second compound 0.0316 µM, first compound 3.16 µM) was 33.4% and the viability, T/C (second compound 0.0316 µM, first compound 10 µM) was 1.2%. For the same compound, the viability, T/C [11] was 65.4%, the viability, T/C [12] was 50.3% and the viability, T/C [13] was 31.8%. For the same compound, the viability, T/C [14] was 27.8%, the viability, T/C (second compound 0.1 µM, first compound 3.16 µM) was 20.9% and the viability, T/C (second compound 0.1 µM, first compound 10 µM) was 0.42%. For the same compound, the viability, T/C [15] was 23.6%, the viability, T/C [16] was 23.3% and the viability, T/C [17] was 17%. The viability, T/C [18] was 16.9%, the viability, T/C (second compound 0.316 µM, first compound 3.16 µM) was 11.4% and the viability, T/C (second compound 0.316 µM, first compound 10 µM) was 0.33%. For the same compound, the viability, T/C [19] was 15.6%, the viability, T/C [20] was 13.1% and the viability, T/C [21] was 10%. The viability, T/C [22] was 12.4%, the viability, T/C (second compound 1 µM, first compound 3.16 µM) was 10.8% and the viability, T/C (second compound 1 µM, first compound 10 µM) was 0.24%. The viability, T/C [23] was 11.4%, the viability, T/C [24] was 12.1% and the viability, T/C [25] was 9.69%. For the same compound, the viability, T/C [26] was 8.93%, the viability, T/C (second compound 3.16 µM, first compound 3.16 µM) was 9.39% and the viability, T/C (second compound 3.16 µM, first compound 10 µM) was 0.27%. For the same compound, the viability, T/C [27] was 9.74%, the viability, T/C [28] was 8.08% and the viability, T/C [29] was 9.05%. It also gave a viability, T/C [30] of 8.95%, a viability, T/C (second compound 10 µM, first compound 3.16 µM) of 8.58% and a viability, T/C (second compound 10 µM, first compound 10 µM) of 0.36%.
In the case of CC(Nc1ccc2c(c1)OCCn1cc(N3C(=O)OCC3C(F)F)nc1-2)C(N)=O (stereo unspecified), the viability, T/C (compound 0.0316 µM) is reported as 102% (2×) and 76.1% and 98.5%, the viability, T/C (compound 0.1 µM) is reported as 91.8% [middle of 4 runs] and the viability, T/C (compound 0.316 µM) is reported as 69.5% [middle of 4 runs]. For the same compound, the viability, T/C (compound 1 µM) was 51.2% [middle of 4 runs] and the viability, T/C (compound 10 µM) was 34.3% [middle of 4 runs].
CC(C)NCC(C(=O)N1CCN(c2ncnc3c2C(C)CC3O)CC1)c1ccc(Cl)cc1 (stereo unspecified) was tested, and the viability, T/C (compound 0.0316 µM) was 86% [middle of 4 runs], the viability, T/C (compound 0.1 µM) was 89.2% [middle of 4 runs] and the viability, T/C (compound 0.316 µM) was 97.7% [middle of 4 runs]. For the same compound, the viability, T/C (compound 1 µM) was 68.8% [middle of 4 runs], the viability, T/C (compound 3.16 µM) was 48% [middle of 4 runs] and the viability, T/C (compound 10 µM) was 32.2% [middle of 4 runs]. The IC50 (curve of compound) was 2.59 µM [middle of 4 runs].
Compound C=CC(=O)Nc1cc(Nc2nccc(-c3cn(C)c4ccccc34)n2)c(OC)cc1N(C)CCN(C)C + C#Cc1c(F)ccc2cc(O)cc(-c3ncc4c(N5CC6CCC(C5)N6)nc(OCC56CCCN5CC(F)C6)nc4c3F)c12 has an IC50 [1] of 97.4 nM, an IC50 [2] of 34.5 nM and an IC50 [3] of less than 3.16 nM. The IC50 [4] was less than 3.16 nM, the IC50 [5] was less than 3.16 nM and the IC50 [6] was less than 3.16 nM. For the same compound, the viability, T/C (second compound 0.0316 µM, first compound 0.00316 µM) was 67.1%, the viability, T/C (second compound 0.0316 µM, first compound 0.01 µM) was 76.4% and the viability, T/C [7] was 69.8%. For the same compound, the viability, T/C [8] was 37.6%, the viability, T/C [9] was 40.9% and the viability, T/C [10] was 15%. It also gave a viability, T/C (second compound 0.1 µM, first compound 0.00316 µM) of 51.4%, a viability, T/C (second compound 0.1 µM, first compound 0.01 µM) of 61.5% and a viability, T/C [11] of 52.3%. It also gave a viability, T/C [12] of 28.4%, a viability, T/C [13] of 16.5% and a viability, T/C [14] of 8.02%. The viability, T/C (second compound 0.316 µM, first compound 0.00316 µM) was 23.2%, the viability, T/C (second compound 0.316 µM, first compound 0.01 µM) was 31.3% and the viability, T/C [15] was 22.7%. For the same compound, the viability, T/C [16] was 13.8%, the viability, T/C [17] was 10.4% and the viability, T/C [18] was 6.25%. For the same compound, the viability, T/C (second compound 1 µM, first compound 0.00316 µM) was 15.8%, the viability, T/C (second compound 1 µM, first compound 0.01 µM) was 18% and the viability, T/C [19] was 13.4%. The viability, T/C [20] was 11.4%, the viability, T/C [21] was 8.84% and the viability, T/C [22] was 6.02%. For the same compound, the viability, T/C (second compound 3.16 µM, first compound 0.00316 µM) was 10.4%, the viability, T/C (second compound 3.16 µM, first compound 0.01 µM) was 12.5% and the viability, T/C [23] was 11.1%. The viability, T/C [24] was 8.84%, the viability, T/C [25] was 7.79% and the viability, T/C [26] was 4.87%. For the same compound, the viability, T/C (second compound 10 µM, first compound 0.00316 µM) was 9.04%, the viability, T/C (second compound 10 µM, first compound 0.01 µM) was 8.39% and the viability, T/C [27] was 8.64%. The viability, T/C [28] was 7.72%, the viability, T/C [29] was 6.69% and the viability, T/C [30] was 3.95%.
